Source: patent publication US8222008B2, “Methods and compositions for treating cancer” (The Administrators of The Tulane Educational Fund, priority 2003, dated 2012)
Where “and” joins values, the source holds several entries; their conditions need not be identical. Equal values may be shown once.

How the values were obtained:
normal fibroblasts [1] = assay: Lysosomal cystine content, cystine binding protein assay; format: cell-based, human
Procedure: (§1) Intracellular lysosomal free cystine was determined using a cystine binding protein (CBP) assay (Oshima et al, 1974 J. Biol. Chem., 249:6033-6039). CBP was procured from Riverside Scientific. The assay has a sensitivity of 0.1 μM. Total cell protein was determined by a modification of the Lowry method (Lowry O. et al 1951 J. Biol. Chem., 193:265-275). Statistical analyses were performed using paired t test for means with SSPS for Windows. Results are mean+/−1.0 SD (FIG. 3).
Normal fibroblast lysosomes were loaded with cystine by the addition of 0.5 mM cystine dimethylester (CDME, Sigma) to normal culture medium for 1 hour before treatment (Pisoni, R L, et al, 1992 Somat. Cell. Mol. Genet., 18:1-6). The cells were treated with apoptotic triggers, leaving CDME in the medium to prevent lysosomal cystine loss, and then analyzed for apoptosis.
The lysosomal cystine content of normal fibroblasts was also altered as follows. Normal fibroblasts also at passage 7-13 were pretreated with 0.5 mM CDME for 1 hour, increasing the cystine content of their lysosomes to the cystinotic range (0.47 to 1.95 nmol of cystine per mg of protein). […]
In another experiment, the cystine content was decreased in cystinotic cells from 2.3 to 0.5 nmols cystine/10^6 cells by pretreatment with MEA before incubation in cystine-free and serum-free Ham F12 medium. […] Cells were stained with CaspACE and analyzed. […]

liver of black mice = assay: Liver cystine concentration after CDME injection (CBP and BCA assays); format: in vivo, mouse
Procedure: as §1
CDME was evaluated in mice for cystine generation in response to varying doses as follows: A stock solution of CDME in PBS was prepared having a concentrations of 1.8 g CDME/500 μL PBS. The stock solution was diluted to generate solutions for administration. 500 μL of diluted solutions were injected intraperitoneally into black mice (body mass ˜0.03 kg). All injections were performed in duplicate.
Following administration of the solutions of Table 6, the endogenous cystine concentrations in two organs (kidney and liver) were examined for the 6 mice, i.e., the CDME-injected mice as well as black, heterozygous, and wild-type control mice. The analysis was performed using the cystine binding protein CBP assay of Example 1 and the Bicinchoninic Acid BCA assay (Pierce Biotechnology) for total protein concentration.

[2] = test system: human renal proximal tubule epithelial cells; assay: Effect of various compounds on apoptosis, CaspASE staining and FACS; format: cell-based
Procedure: Normal and cystinotic fibroblasts were purchased from the Coriell Mutant Cell Repository, and cultured in Coon modification of Ham F12 medium, supplemented with 10% fetal calf serum (FCS). Renal proximal tubule epithelial (RPTE; Biowhittaker Corp.) were cultured in renal epithelial basal medium supplemented with one Singlequots™ kit (Biowhittaker) per 500 mL to make renal epithelial growth media (REGM, Biowhittaker). Fibroblasts and RPTE were maintained in a 5% carbon dioxide, 95% air, humidified incubator at 37° C. (Thoene J. G. et al, 1976 J. Clin. Invest, 58:180-189).
Cultured human renal proximal tubule epithelial cells were incubated with various apoptotic compounds at a concentration of 0.5 mM for 16 hours. Following incubation, cells were stained with CaspASE. Fluorescence-activated cell sorting (Beckman Coulter Epics Elite) was used to determine the percentage of cells undergoing apoptosis from each treatment group.

GM005399 cells = assay: Apoptosis on serum withdrawal, CaspACE; format: cell-based, human; details: serum withdrawal and CDME
Procedure: Induction of apoptosis and assays for its detection were performed using commercially available reagents. Normal and cystinotic fibroblasts were matched for passage number (±3) and cell density, and then exposed to an apoptotic trigger. One apoptotic trigger used was TNF-a (30 ng/mL) with actinomycin D (2.5 μg/mL) for 16 hours. Another trigger was anti-Fas antibody (500 ng/mL) with actinomycin D (2.5 μg/mL) for 16 hours. A third trigger to induce apoptosis in the cells was Ultraviolet B light (60 mJ). See, e.g., previously described protocols of Aggarwal B B, 1992 Immunol. Ser., 56:61-78; Higuchi M. et al, 1995 J. Immunol. Meth., 178:173-181; Itoh N, et al, 1991 Cell, 66:233-243; Itoh N. et al, 1993 J. Biol. Chem., 268:10932-10937. Serum withdrawal was also used as a apoptotic stimulus (Lieberthal W, et al, 1998 Am. J. Physiol. 275:F691-F702; Verzola D. et al, 2001 Exp Nephrol., 9:366-371; Iglesias J. et al, 1999 Am. J. Physiol. 277:F711-F712; Kulkarni G V, et al, 1994 J. Cell Sci., 107:1169-1179), in which case the cells were incubated in F12 medium without serum for 24 hours and then analyzed for apoptosis.
1. […] The cells were visually enumerated by fluorescence microscopy, scoring a minimum of five fields (250 to 300 cells) for fluorescence in triplicate followed by counting all cells in the same field by light microscopy, with a minimum of 750 cells scored per condition. […]

normal fibroblasts [3] = assay: Phase micrographs, apoptotic morphology; format: cell-based, human; details: normal cells with CDME added, TNF-α exposure
Description: Phase micrographs (not shown) were also obtained of normal fibroblasts after TNF-α exposure alone, in normal fibroblasts in CDME, and in nephropathic fibroblasts after TNF-α exposure alone. Typical apoptotic morphology was observed, i.e., typical blebs in the plasma membrane are seen after treatment with TNF-a in both normal and cystinotic cell lines and the modulating effects of MEA and CDME was seen.

## COC(=O)[C@@H](N)CSSC[C@H](N)C(=O)OC [CDME, cystine dimethyl ester]
Normal fibroblasts [1]; increased from 0.4, before serum withdrawal
  cystine content after treatment with CDME: 1.3 nmols cystine/10^6 cells
Normal fibroblasts [1]; normal content <0.1 nmol/mg protein, UV light experiment
  cystine content after pre-exposure to CDME: 1.95 nmol/mg protein
Liver of black mice; 5,000 mg CDME/kg intraperitoneally, Mouse #1 and #2
  Liver Cystine Concentration: 230 nmol cystine/mg protein and 150 nmol cystine/mg protein
Liver of black mice; 10,000 mg CDME/kg intraperitoneally, Mouse #3
  Liver Cystine Concentration: 6.7 nmol cystine/mg protein
[2]; 0.5 mM (concentration employed in fibroblasts)
  toxicity to RPTE cells: toxic
[2]; RPTE cells, method states 0.5 mM for 16 hours, CaspASE, FACS
  percentage of cells undergoing apoptosis: 39.7%
GM005399 cells
  % Apoptosis: 37.3%
Normal fibroblasts [3]
  apoptotic morphology in phase micrographs: Enhanced apoptosis
